From ChEMBL document CHEMBL4665919, “Novel Tricyclic Pyroglutamide Derivatives as Potent RORγt Inverse Agonists Identified using a Virtual Screening Approach” (ACS Med Chem Lett, 2020) come the findings set out here.

Series [1] in a line: Drug concentration in IL-23 induced acanthosis in C57BL/6 mouse measured as (3R,5S)-3-Fluoro-5-((3aR,9bR)-9b-((4-fluorophenyl)sulfonyl)-7-(perfluoropropan-2-yl)-2,3,3a,4,5,9b-hexahydro-1H-benzo[e]indole-3-carbonyl)-1-(2-hydroxy-2-methylpropyl)pyrrolidin-2-one at 15 mg/kg, po qd administered for 2 hrs before IL-23 injection measured on day 1. Conditions: in vivo, 24 h, time 1 day, read-out: Ct. In kind it is ADME, organism-based.

The nature of series [2]: AUC in IL-23 induced acanthosis C57BL/6 mouse model of psoriasis measured as (3R,5S)-3-Fluoro-5-((3aR,9bR)-9b-((4-fluorophenyl)sulfonyl)-7-(perfluoropropan-2-yl)-2,3,3a,4,5,9b-hexahydro-1H-benzo[e]indole-3-carbonyl)-1-(2-hydroxy-2-methylpropyl)pyrrolidin-2-one at 15 mg/kg, po qd administered for 2 hrs before IL-23 injection measured on day 1. In kind it is ADME, organism-based. On the set-up: time 1 day, dose 15 mg/kg. Conditions: in vivo, 24 h.

A short description of series [3]: AUC in IL-23 induced acanthosis C57BL/6 mouse model of psoriasis measured as (3R,5S)-3-Fluoro-5-((3aR,9bR)-9b-((4-fluorophenyl)sulfonyl)-7-(perfluoropropan-2-yl)-2,3,3a,4,5,9b-hexahydro-1H-benzo[e]indole-3-carbonyl)-1-(2-hydroxy-2-methylpropyl)pyrrolidin-2-one at 45 mg/kg, po qd administered for 2 hrs before IL-23 injection measured on day 1. In kind it is ADME, organism-based. Also noted: time 1 day, dose 45 mg/kg. As to conditions: in vivo, 24 h.

Series [4] in a line: AUC in IL-23 induced acanthosis C57BL/6 mouse model of psoriasis measured as (3R,5S)-3-Fluoro-5-((3aR,9bR)-9b-((4-fluorophenyl)sulfonyl)-7-(perfluoropropan-2-yl)-2,3,3a,4,5,9b-hexahydro-1H-benzo[e]indole-3-carbonyl)-1-(2-hydroxy-2-methylpropyl)pyrrolidin-2-one at 5 mg/kg, po qd administered for 9 days 2 hrs before IL-23 injection. In kind it is ADME, organism-based. On the set-up: dose 5 mg/kg, time 9 day. As to conditions: in vivo, 216 h.

Series [5] is described as follows: Solubility of the compound at pH 6.7. In kind it is physicochemical. Conditions: buffer.
Series [6] can be described thus: Ratio of IC90 for inverse agonist activity at RORgammat in human whole blood assessed as IL-17 production by ELISA to drug concentration in IL-23 induced acanthosis in Th17 mouse measured as (3R,5S)-3-Fluoro-5-((3aR,9bR)-9b-((4-fluorophenyl)sulfonyl)-7-(perfluoropropan-2-yl)-2,3,3a,4,5,9b-hexahydro-1H-benzo[e]indole-3-carbonyl)-1-(2-hydroxy-2-methylpropyl)pyrrolidin-2-one at 5 mg/kg, po qd administered for 9 days 2 hrs before IL-23 injection.

Series [7] is described as follows: Drug concentration in IL-23 induced acanthosis in C57BL/6 mouse measured as (3R,5S)-3-Fluoro-5-((3aR,9bR)-9b-((4-fluorophenyl)sulfonyl)-7-(perfluoropropan-2-yl)-2,3,3a,4,5,9b-hexahydro-1H-benzo[e]indole-3-carbonyl)-1-(2-hydroxy-2-methylpropyl)pyrrolidin-2-one at 45 mg/kg, po qd administered for 2 hrs before IL-23 injection measured on day 11. As to conditions: in vivo, 24 h, time 1 day, read-out: Ct. In kind it is ADME, organism-based.

Series [8] in a line: Cmax in IL-23 induced acanthosis C57BL/6 mouse model of psoriasis measured as (3R,5S)-3-Fluoro-5-((3aR,9bR)-9b-((4-fluorophenyl)sulfonyl)-7-(perfluoropropan-2-yl)-2,3,3a,4,5,9b-hexahydro-1H-benzo[e]indole-3-carbonyl)-1-(2-hydroxy-2-methylpropyl)pyrrolidin-2-one at 45 mg/kg, po qd administered for 9 days 2 hrs before IL-23 injection. In kind it is ADME, organism-based. Also noted: route oral, dose 45 mg/kg, time 9 day. Conditions: in vivo, 216 h.

The nature of series [9]: Cmax in IL-23 induced acanthosis C57BL/6 mouse model of psoriasis measured as (3R,5S)-3-Fluoro-5-((3aR,9bR)-9b-((4-fluorophenyl)sulfonyl)-7-(perfluoropropan-2-yl)-2,3,3a,4,5,9b-hexahydro-1H-benzo[e]indole-3-carbonyl)-1-(2-hydroxy-2-methylpropyl)pyrrolidin-2-one at 5 mg/kg, po qd administered for 9 days 2 hrs before IL-23 injection. In kind it is ADME, organism-based. Also noted: route oral, dose 5 mg/kg, time 9 day. As to conditions: in vivo, 216 h.

Series [10] has as its system Mus musculus. The experiment in a line: Suppression of ear thickness in IL-23 induced acanthosis C57BL/6 mouse model of psoriasis measured as (3R,5S)-3-Fluoro-5-((3aR,9bR)-9b-((4-fluorophenyl)sulfonyl)-7-(perfluoropropan-2-yl)-2,3,3a,4,5,9b-hexahydro-1H-benzo[e]indole-3-carbonyl)-1-(2-hydroxy-2-methylpropyl)pyrrolidin-2-one at 45 mg/kg, po qd administered for 9 days 2 hrs before IL-23 injection measured every other day relative to IL-23 antibody treatment. Conditions: C57BL/6, po, 216 h, time 9 day. In kind it is functional.

Series [11] can be described thus: Drug concentration in IL-23 induced acanthosis in C57BL/6 mouse measured as (3R,5S)-3-Fluoro-5-((3aR,9bR)-9b-((4-fluorophenyl)sulfonyl)-7-(perfluoropropan-2-yl)-2,3,3a,4,5,9b-hexahydro-1H-benzo[e]indole-3-carbonyl)-1-(2-hydroxy-2-methylpropyl)pyrrolidin-2-one at 5 mg/kg, po qd administered for 9 days 2 hrs before IL-23 injection. In kind it is ADME, organism-based. As to conditions: in vivo, 216 h, time 9 day, read-out: Ct.

The nature of series [12]: AUC in IL-23 induced acanthosis C57BL/6 mouse model of psoriasis measured as (3R,5S)-3-Fluoro-5-((3aR,9bR)-9b-((4-fluorophenyl)sulfonyl)-7-(perfluoropropan-2-yl)-2,3,3a,4,5,9b-hexahydro-1H-benzo[e]indole-3-carbonyl)-1-(2-hydroxy-2-methylpropyl)pyrrolidin-2-one at 45 mg/kg, po qd administered for 9 days 2 hrs before IL-23 injection. In kind it is ADME, organism-based. Also noted: time 9 day, dose 45 mg/kg. As to conditions: in vivo, 216 h.

The nature of series [13]: Ratio of IC90 for inverse agonist activity at RORgammat in human whole blood assessed as IL-17 production by ELISA to drug concentration in IL-23 induced acanthosis in […] mouse measured as (3R,5S)-3-Fluoro-5-((3aR,9bR)-9b-((4-fluorophenyl)sulfonyl)-7-(perfluoropropan-2-yl)-2,3,3a,4,5,9b-hexahydro-1H-benzo[e]indole-3-carbonyl)-1-(2-hydroxy-2-methylpropyl)pyrrolidin-2-one at 45 mg/kg, po qd ….

The nature of series [14]: AUC in IL-23 induced acanthosis C57BL/6 mouse model of psoriasis measured as (3R,5S)-3-Fluoro-5-((3aR,9bR)-9b-((4-fluorophenyl)sulfonyl)-7-(perfluoropropan-2-yl)-2,3,3a,4,5,9b-hexahydro-1H-benzo[e]indole-3-carbonyl)-1-(2-hydroxy-2-methylpropyl)pyrrolidin-2-one at 15 mg/kg, po qd administered for 9 days 2 hrs before IL-23 injection. In kind it is ADME, organism-based. On the set-up: time 9 day, dose 15 mg/kg. Conditions: in vivo, 216 h.

Series [15] is described as follows: Drug concentration in IL-23 induced acanthosis in C57BL/6 mouse measured as (3R,5S)-3-Fluoro-5-((3aR,9bR)-9b-((4-fluorophenyl)sulfonyl)-7-(perfluoropropan-2-yl)-2,3,3a,4,5,9b-hexahydro-1H-benzo[e]indole-3-carbonyl)-1-(2-hydroxy-2-methylpropyl)pyrrolidin-2-one at 45 mg/kg, po qd administered for 9 days 2 hrs before IL-23 injection. Conditions: in vivo, 216 h, time 9 day, read-out: Ct. In kind it is ADME, organism-based.

A short description of series [16]: Drug concentration in IL-23 induced acanthosis in C57BL/6 mouse measured as (3R,5S)-3-Fluoro-5-((3aR,9bR)-9b-((4-fluorophenyl)sulfonyl)-7-(perfluoropropan-2-yl)-2,3,3a,4,5,9b-hexahydro-1H-benzo[e]indole-3-carbonyl)-1-(2-hydroxy-2-methylpropyl)pyrrolidin-2-one at 5 mg/kg, po qd administered for 2 hrs before IL-23 injection measured on day 1. In kind it is ADME, organism-based. Conditions: in vivo, 24 h, time 1 day, read-out: Ct.

A short description of series [17]: Drug concentration in IL-23 induced acanthosis in C57BL/6 mouse measured as (3R,5S)-3-Fluoro-5-((3aR,9bR)-9b-((4-fluorophenyl)sulfonyl)-7-(perfluoropropan-2-yl)-2,3,3a,4,5,9b-hexahydro-1H-benzo[e]indole-3-carbonyl)-1-(2-hydroxy-2-methylpropyl)pyrrolidin-2-one at 15 mg/kg, po qd administered for 9 days 2 hrs before IL-23 injection. In kind it is ADME, organism-based. As to conditions: in vivo, 216 h, time 9 day, read-out: Ct.

Series [18] can be described thus: AUC in IL-23 induced acanthosis C57BL/6 mouse model of psoriasis measured as (3R,5S)-3-Fluoro-5-((3aR,9bR)-9b-((4-fluorophenyl)sulfonyl)-7-(perfluoropropan-2-yl)-2,3,3a,4,5,9b-hexahydro-1H-benzo[e]indole-3-carbonyl)-1-(2-hydroxy-2-methylpropyl)pyrrolidin-2-one at 5 mg/kg, po qd administered for 2 hrs before IL-23 injection measured on day 1. In kind it is ADME, organism-based. Also noted: time 1 day, dose 5 mg/kg. Conditions: in vivo, 24 h.

A short description of series [19]: Toxicity in IL-23 induced acanthosis C57BL/6 mouse model of psoriasis assessed as change in body weight measured as (3R,5S)-3-Fluoro-5-((3aR,9bR)-9b-((4-fluorophenyl)sulfonyl)-7-(perfluoropropan-2-yl)-2,3,3a,4,5,9b-hexahydro-1H-benzo[e]indole-3-carbonyl)-1-(2-hydroxy-2-methylpropyl)pyrrolidin-2-one at 5 to 45 mg/kg, po qd administered for 9 days 2 hrs before IL-23 injection measured every other day. In kind it is organism-based. As to conditions: in vivo, dose 5-45 mg/kg.

Series [20] in a line: Ratio of IC90 for inverse agonist activity at RORgammat in human whole blood assessed as IL-17 production by ELISA to drug concentration in IL-23 induced acanthosis in Th17 mouse measured as (3R,5S)-3-Fluoro-5-((3aR,9bR)-9b-((4-fluorophenyl)sulfonyl)-7-(perfluoropropan-2-yl)-2,3,3a,4,5,9b-hexahydro-1H-benzo[e]indole-3-carbonyl)-1-(2-hydroxy-2-methylpropyl)pyrrolidin-2-one at 15 mg/kg, po qd ….

In series [21] the test system is Mus musculus. The experiment in a line: Suppression of ear thickness in IL-23 induced acanthosis C57BL/6 mouse model of psoriasis measured as (3R,5S)-3-Fluoro-5-((3aR,9bR)-9b-((4-fluorophenyl)sulfonyl)-7-(perfluoropropan-2-yl)-2,3,3a,4,5,9b-hexahydro-1H-benzo[e]indole-3-carbonyl)-1-(2-hydroxy-2-methylpropyl)pyrrolidin-2-one at 15 mg/kg, po qd for 9 days 2 hrs before IL-23 injection measured every other day relative to IL-23 antibody treatment. In kind it is functional. As to conditions: C57BL/6, po, 216 h, time 9 day.

A short description of series [22]: Cmax in IL-23 induced acanthosis C57BL/6 mouse model of psoriasis measured as (3R,5S)-3-Fluoro-5-((3aR,9bR)-9b-((4-fluorophenyl)sulfonyl)-7-(perfluoropropan-2-yl)-2,3,3a,4,5,9b-hexahydro-1H-benzo[e]indole-3-carbonyl)-1-(2-hydroxy-2-methylpropyl)pyrrolidin-2-one at 15 mg/kg, po qd administered for 9 days 2 hrs before IL-23 injection. In kind it is ADME, organism-based. Also noted: route oral, dose 15 mg/kg, time 9 day. As to conditions: in vivo, 216 h.

Where only a bound is given, the exact number is not on record here.

In the case of `CC(C)(CN1C(=O)[C@H](F)C[C@H]1C(=O)N1CC[C@@]2(S(=O)(=O)c3ccc(F)cc3)c3ccc(C(F)(C(F)(F)F)C(F)(F)F)cc3CC[C@@H]12)OP(=O)(O)O`, the concentration came to 480 nM in [1]; 910 nM in series [7]; 150 nM in [11]; 5820 nM in series [15]; 210 nM in series [16]; 1360 nM in series [17]. Moreover, the AUC in series [2] is 30.9 µM·h; in [3] it was 274.3 µM·h; in [4], 9 µM·h; in series [12], 162.9 µM·h; in [14] it was 45.2 µM·h; in series [18], 13.9 µM·h. The solubility in series [5] was no less than 4700 µg/mL. In addition, the values for the Ratio in series [6], in series [13] and in [20] were 0.4, 13.9 and 3.2, respectively. In addition, the maximum concentration (Cmax) in [8] came out at 8340 nM; in series [9], 650 nM; in series [22], 2580 nM. Besides, the inhibition in vivo at 45 mg/kg in series [10] was determined as 67%. Further, in series [19], the Activity entry is reported as “Non-Toxic”. In [21], this molecule displayed an inhibition in vivo at 15 mg/kg of 38%.
